According to US9029385B2, “Compositions and methods for treating fibroproliferative disorders” (priority 2007, dated 2015):

How the values were obtained:
Assay type in all cases: in vivo
[1] = test system: bleomycin-induced pulmonary fibrosis; experiment: Bleomycin-induced pulmonary fibrosis mouse model: lung histopathology and semi-quantitative lesion score (Masson trichrome); settings: mice, fourteen days after intratracheal bleomycin; PTX 10 mg/kg and/or NAC 20 mg/kg IP daily; vs untreated BLM animals
Description: FIG. 4 illustrates representative photomicrographs of lung histopathology. Normal lung histology is shown in panel A (Group I-saline). […] Collagen is stained with Masson trichrome (light blue color). Original ×10 and ×40 magnifications are shown. FIG. 5 illustrates the effect of pentoxifylline and N-acetyl-cysteine on histological lesions scores of the extent and severity of fibrosis in the experimental groups, as indicated. Data are representative of 5 independent experiments, presented as mean±SD (n=4). The composition including pentoxifylline (PTX) and N-acetyl-cysteine (NAC) was assessed in vivo in a mouse model using an experimental design in which a pulmonary fibrosis was generated using bleomycin injury of lung. Bleomycin (BLM) is an effective antineoplastic drug that binds to and damages DNA of tumour cells. However, administration of BLM may result in lung inflammation that can progress to fibrosis. […] In addition, the lung weights were recorded, photographs of the lungs were taken and tissue samples processed either for biochemical analysis of hydroxyproline (immediately frozen on dry ice) or further morphological analysis (immersed in fixative solution of 10% neutral-buffered formalin).

glutathione (GSH) = experiment: Bleomycin-induced pulmonary fibrosis mouse model: total glutathione in bronchoalveolar lavage fluid; settings: mice, BLM IT; NAC 20 mg/kg IP daily; FIG. 8
Experimental: FIG. 8 illustrates total glutathione levels in bronchoalveolar lavage fluid (BALF) in different experimental groups, as indicated. Data are representative of 4 independent experiments, and presented as mean±SD (n=5). The composition including pentoxifylline (PTX) and N-acetyl-cysteine (NAC) was assessed in vivo in a mouse model using an experimental design in which a pulmonary fibrosis was generated using bleomycin injury of lung. Bleomycin (BLM) is an effective antineoplastic drug that binds to and damages DNA of tumour cells. However, administration of BLM may result in lung inflammation that can progress to fibrosis. This side effect is due mostly to augmented concentration of reactive oxygen species, decrease in nicotinamide adenine dinucleotide (NAD) and adenosine triphosphate (ATP), and overproduction of mature collagen fibrils. Because BLM-induced lung fibrosis is easily reproduced in different species of mammals, experimental models using the drug have been adopted with the goal of investigating the efficacy of the current invention. [table] […] In addition, the lung weights were recorded, photographs of the lungs were taken and tissue samples processed either for biochemical analysis of hydroxyproline (immediately frozen on dry ice) or further morphological analysis (immersed in fixative solution of 10% neutral-buffered formalin). […]

[2] = test system: bleomycin-induced pulmonary fibrosis; experiment: Bleomycin-induced pulmonary fibrosis mouse model: wet lung weight; settings: mice, BLM 0.06 U IT; IP daily for 14 days (PTX 10 mg/kg, NAC 20 mg/kg); vs BLM + saline; FIG. 3
Experimental: The composition including pentoxifylline (PTX) and N-acetyl-cysteine (NAC) was assessed in vivo in a mouse model using an experimental design in which a pulmonary fibrosis was generated using bleomycin injury of lung. Bleomycin (BLM) is an effective antineoplastic drug that binds to and damages DNA of tumour cells. However, administration of BLM may result in lung inflammation that can progress to fibrosis. This side effect is due mostly to augmented concentration of reactive oxygen species, decrease in nicotinamide adenine dinucleotide (NAD) and adenosine triphosphate (ATP), and overproduction of mature collagen fibrils. Because BLM-induced lung fibrosis is easily reproduced in different species of mammals, experimental models using the drug have been adopted with the goal of investigating the efficacy of the current invention. […] In this example, the effects of PTX and NAC in combination were studied in comparison to PTX and NAC individually. […] In addition, the lung weights were recorded, photographs of the lungs were taken and tissue samples processed either for biochemical analysis of hydroxyproline (immediately frozen on dry ice) or further morphological analysis (immersed in fixative solution of 10% neutral-buffered formalin).

TNF-α = experiment: Bleomycin-induced pulmonary fibrosis mouse model: TNF-α in bronchoalveolar lavage fluid by ELISA; settings: mice, day 5 post bleomycin instillation, PTX 10 mg/kg, NAC 20 mg/kg IP daily, FIG. 7
Experimental: Difference of TNF-α at day 5 post bleomycin instillation is shown. Values are means±SD; 5 mice per group. The composition including pentoxifylline (PTX) and N-acetyl-cysteine (NAC) was assessed in vivo in a mouse model using an experimental design in which a pulmonary fibrosis was generated using bleomycin injury of lung. Bleomycin (BLM) is an effective antineoplastic drug that binds to and damages DNA of tumour cells. However, administration of BLM may result in lung inflammation that can progress to fibrosis. This side effect is due mostly to augmented concentration of reactive oxygen species, decrease in nicotinamide adenine dinucleotide (NAD) and adenosine triphosphate (ATP), and overproduction of mature collagen fibrils. Because BLM-induced lung fibrosis is easily reproduced in different species of mammals, experimental models using the drug have been adopted with the goal of investigating the efficacy of the current invention. [table] Mice (under anesthesia) received a single intratracheal dose of either saline (control) or bleomycin (BLM). […] In addition, the lung weights were recorded, photographs of the lungs were taken and tissue samples processed either for biochemical analysis of hydroxyproline (immediately frozen on dry ice) or further morphological analysis (immersed in fixative solution of 10% neutral-buffered formalin). […]

Row | SMILES | anti-fibrotic effect seen in lung histology [1] | total glutathione (GSH) level in BALF (glutathione (GSH)) | lung weight [2] | BLM-induced increase in TNF-α level in BALF (TNF-α)
1 | CC(=O)N[C@@H](CS)C(=O)O [NAC, N-acetyl-L-cysteine] | marked anti-fibrotic effect | GSH levels can indeed be supplemented | lower lung weights were observed but statistical significance was not reached | significantly decreased
2 | CC(=O)CCCCn1c(=O)c2c(ncn2C)n(C)c1=O [PTX, pentoxifylline] | – | – | lower lung weights were observed but statistical significance was not reached | significantly decreased
